# Source: ChEMBL document CHEMBL1156398, “Four new bioactive pyrrole-derived alkaloids from the marine sponge Axinella brevistyla” (J Nat Prod, 2001)
# Activity calls are given as the source filed them. The rule behind the calls is not given here.
# Key:
# L1210 = assay: Cytotoxicity against mouse L1210 cells; format: functional, cell-based
# Saccharomyces cerevisiae [1] = assay: Antifungal activity against Saccharomyces cerevisiae YAT2285 erg6 mutant at <1.0 ug/disk by paper disk method; format: functional, organism-based
# Saccharomyces cerevisiae [2] = assay: Antifungal activity against Saccharomyces cerevisiae YAT2285 erg6 mutant at 100 ug/disk by paper disk method; format: functional, organism-based
# Saccharomyces cerevisiae [3] = assay: Antifungal activity against Saccharomyces cerevisiae YAT2285 erg6 mutant at 30 ug/disk by paper disk method; format: functional, organism-based
Compound,IC50 (L1210),Activity (Saccharomyces cerevisiae [1]),Activity (Saccharomyces cerevisiae [2]),Activity (Saccharomyces cerevisiae [3])
O=C1NC(=O)C(Br)=C1Br,0.66 µg/mL,Active,–,–
O=C1C=C(Br)C(=O)N1,1.1 µg/mL,Active,–,–
C[N+]1=CN[C@H](C(=O)[O-])C[C@@]1(C)COC(=O)c1cc(Br)c[nH]1,–,–,Active,–
NC1=NC2c3c([nH]c(Br)c3Br)C(=O)N3C[C@H](Cl)[C@H](O)C23N1 (some centres not stated),2.5 µg/mL,–,–,Active
